“And” between values parts separate entries of the source, which are not always exact repeats. Identical values can stand only once.
Work on `CN1C(=O)C(=NNc2c(Br)cc(Br)cc2Br)C(=O)N(C)C1=O` yielded a melting point of 166 °C.
With `CCOC(=O)[C@@H]1CC[C@H](C(C)=O)[C@@H]1NC(=O)OC(C)(C)C` the melting point was 110 °C.
With `C/C=C/C1Nn2c(nnc2-c2ccc(OC)cc2)S1` (centres undefined) the melting point was 81 °C.
`C/C=C/C1Nn2c(nnc2-c2ccccc2OC)S1` (centres undefined) gave a melting point of 125 °C.
For `CC(C)CC1=C/C(=C/c2ccc(-c3ccc(Br)cc3)o2)C(=O)O1`, the melting point was 108 °C.
Work on `CC(C)CCOC(=O)/C=C/c1ccc(/C=C/C(=O)OCCC(C)C)c([N+](=O)[O-])c1` yielded a melting point of 94 °C.
For `CC1(C)C(O)[C@H](Cl)[C@@H]2CC[C@H]1O2` (some centres undefined), the melting point was 72 °C.
Work on `CC12CCC(C1(C)C)C(C/C=C\c1ccccc1)(C1(C/C=C/c3ccccc3)C(=O)C3(C)CCC1C3(C)C)C2=O` (centres undefined) yielded a melting point of 152 °C.
For `CC1=NN(c2ccccc2)C(=O)/C1=C/c1ccccc1O`, the melting point was 154 °C.
Work on `CCCCOc1ccc(-c2nnc3sc(/C=C/c4ccccc4)nn23)cc1` yielded a melting point of 80 °C.
With `CN(C)CCOc1ccc(/C(=C(\CCCl)c2ccccc2)c2ccccc2)cc1` the melting point was 108 °C.
In the case of `COC(=O)/C=C(/C(=O)OC)N(Nc1ccccc1N=Nc1ccccc1)c1ccccc1`, the melting point is reported as 154 °C.
With `COc1cc2nnc(/C=C/C(C)=O)c(-c3ccc(C)o3)c2cc1OC` the melting point was 170 °C.
With `COc1ccc(C(=O)/C=C/c2ccc(-c3ccccc3OC)o2)cc1OC` the melting point was 145 °C.
Work on `COc1ccc(C(=O)/C=C/c2ccc(-c3ccccc3[N+](=O)[O-])o2)cc1OC` yielded a melting point of 120 °C.
In the case of `COc1ccc(N/N=C(\C#N)c2nc(-c3ccc(C)cc3)cs2)cc1`, the melting point is reported as 146 °C.
Work on `COc1ccccc1-c1ccc(/C=C/C(=O)c2ccccc2)o1` yielded a melting point of 99 °C.
Work on `COc1ccccc1/C=C(/C#N)c1nc2ccccc2s1` yielded a melting point of 159 °C.
`COc1ccccc1N/N=C1\C(=O)N(CN2CCCCC2)N=C1C` gave a melting point of 149 °C.
`Cc1ccc(-c2csc(/C(C#N)=N/Nc3cccc(C)c3)n2)cc1` gave a melting point of 133 °C.
Molecule `Cc1ccc(/C=C(\Oc2ccccc2)c2nc3ccccc3s2)cc1` has a melting point of 163 °C.
`Cc1ccc(C(=O)/C=C/c2ccc(-c3ccccc3)o2)o1` gave a melting point of 123 °C.
Molecule `Cn1c(/C(C#N)=N/Nc2cccc(Cl)c2)nc2ccccc21` has a melting point of 166 °C.
`N#C/C(=C\c1ccc(Cl)cc1Cl)c1nc(-c2cccc3ccccc23)cs1` showed a melting point of 133 °C.
In the case of `N#C/C(=N/Nc1cc(Cl)ccc1Cl)c1nc(-c2ccccc2)cs1`, the melting point is reported as 134 °C.
Molecule `NC(=O)/C(=N\Nc1ccc(F)cc1)c1nc2ccccc2s1` has a melting point of 159 °C.
In the case of `NC(=O)/C(=N\Nc1ccc(O)cc1)c1nc2ccccc2s1`, the melting point is reported as 161 °C.
`O/N=C/C1=C(/C=C/c2ccccc2)CCC1` showed a melting point of 163 °C.
`O=C(/C=C/c1ccc(-c2ccc(Br)cc2)o1)c1ccco1` gave a melting point of 165 °C.
`CCOC(=O)C(C=Cc1cccc(C=CC(C(=O)OCC)C(=O)OCC)c1)C(=O)OCC` gave a melting point of 101 °C.
Work on `O=C1/C(=C\c2ccco2)SC(=S)N1CN1CCCCC1` yielded a melting point of 121 °C.
Molecule `O=C1/C(=N/Nc2cccc([N+](=O)[O-])c2)C(C(F)(F)F)=NN1c1ccccc1` has a melting point of 151 °C.
In the case of `COc1cc(O)c2c(=O)c(OC3OC(CO)C(O)C(O)C3OC3OC(C)C(O)C(O)C3O)c(-c3ccc(O)c(O)c3)oc2c1` (centres undefined), the melting point is reported as 187 °C.
In the case of `CCCCC(C)CC(O)C=CC1C(O)CC(=O)C1CCCCC=CC(=O)O` (centres undefined), the melting point is reported as 97 °C.
In the case of `N=C1c2ccccc2C(=O)N1c1n[nH]c2ncccc12`, the melting point is reported as 254 °C.
With `O=C(O)C1=NN(c2ccccc2)C(=O)C1=CC1C(=O)N(c2ccccc2)N=C1C(=O)O` (centres undefined) the melting point was 259 °C.
Work on `O=[N+]([O-])c1cc([N+](=O)[O-])c(C(Br)=Cc2ccccc2)cc1/C=C\c1ccccc1` yielded a melting point of 175 °C.
With `CC(CCc1oc2ccccc2c1-c1ccc(C)o1)=NO` the melting point was 105 °C.
With `Oc1ccccc1/C=N/n1c(S)nnc1C(F)(F)F` the melting point was 156 °C.
`O=C(O)CCN1C(=O)COc2ccc(Cl)cc21` gave a melting point of 148 °C.
`c1ccc(C/C(=N\Nc2ccccc2)c2ccc3ccccc3c2)cc1` showed a melting point of 166 °C.
With `Clc1ncnc2sc3c(c12)CCC3` the melting point was 105 °C.
`COc1ccc(-c2csc(C(C#N)=Cc3ccco3)n2)cc1` gave a melting point of 116 °C.
In the case of `NC(N)=Nc1nc(CSCCC(N)=N[S+2](N)([O-])[O-])cs1`, the melting point is reported as 163 °C.
Work on `O=C(O)CC(O)C(=O)O` (racemic) [dl-malic acid] yielded a melting point of 132 °C.
`C[C@@H]1CCCC[C@@H]1O` (relative stereo) [cis-2-methylcyclohexanol] showed a melting point of 8 °C.
`O=C(O)C(O)[C@H](O)C(=O)O` (stereo in doubt) [D-tartaric acid] gave a melting point of 169 °C.
Work on `Clc1ccc(C(c2ccc(Cl)cc2)C(Cl)(Cl)Cl)cc1` [1,1'-(2,2,2-Trichloroethane-1,1-diyl)bis(4-chlorobenzene)] yielded a melting point of 108 °C.
`Cc1cc(C)c(CSCc2c(C)cc(C)cc2C)c(C)c1` [1,1'-(sulfanediyldimethanediyl)bis(2,4,6-trimethylbenzene)] showed a melting point of 146 °C.
Work on `C1CCC(C2CCCCC2)CC1` [1,1'-Bi(cyclohexyl)] yielded a melting point of 4 °C.
`O=[N+]([O-])c1cccc(C=Cc2cccc([N+](=O)[O-])c2)c1` [1,1'-[1,2-Ethenediyl]bis[3-nitrobenzene]] gave a melting point of 88 °C.
In the case of `CC(Cl)(Cl)Cl` [1,1,1-trichloroethane], the melting point is reported as -30 °C.
`ClCC(Cl)Cl` [1,1,2-Trichloroethane] showed a melting point of -35 °C.
In the case of `BrCC(Br)Br` [1,1,2-tribromoethane], the melting point is reported as -29 °C.
With `C[SiH](C)O[Si](C)(C)O[SiH](C)C` [1,1,3,3,5,5-hexamethyltrisiloxane] the melting point was -67 °C.
For `C[SiH](C)O[SiH](C)C` [1,1,3,3-tetramethyldisiloxane], the melting point was -78 °C.
For `CC(Br)Br` [1,1-dibromoethane], the melting point was -63 °C.
Work on `CCCC(c1ccccc1)c1ccccc1` [1,1-diphenylbutane] yielded a melting point of -25 °C.
With `BrCC(Br)(Br)CBr` [1,2,2,3-tetrabromopropane] the melting point was 11 °C.
`OC1CC2=C(CCCC2)CC1O` (centres undefined) [1,2,3,4,5,6,7,8-octahydronaphthalene-2,3-diol] showed a melting point of 121 °C.
Work on `ClC1C(Cl)C(Cl)C(Cl)C(Cl)C1Cl` (centres undefined) [1,2,3,4,5,6-Hexachlorocyclohexane] yielded a melting point of 113 °C.
Molecule `C1=CC2=NC3=C(CCCC3)C2=CC1` [1,2,3,4-TETRAHYDROCARBAZOLE] has a melting point of 118 °C.
In the case of `c1ccc2c3c([nH]c2c1)CCCC3` [1,2,3,4-tetrahydrocarbazole], the melting point is reported as 119 °C.
`Cc1cccc(C)c1C` [1,2,3-Trimethylbenzene] showed a melting point of -25 °C.
`O=Cc1csnn1` [1,2,3-thiadiazole-4-carboxaldehyde] showed a melting point of 85 °C.
With `O=C(O)c1csnn1` [1,2,3-thiadiazole-4-carboxylic acid] the melting point was 228 °C.
With `Clc1cccc(Cl)c1Cl` [1,2,3-trichlorobenzene] the melting point was 55 °C and 53 °C (2×).
In the case of `Oc1cccc(O)c1O` [1,2,3-trihydroxybenzene], the melting point is reported as 134 °C.
`Cc1cccc(C)c1C` [1,2,3-trimethylbenzene] showed a melting point of -25 °C.
`Brc1cc(Br)c(Br)cc1Br` [1,2,4,5-Tetrabromobenzene] gave a melting point of 182 °C.
For `Clc1cc(Cl)c(Cl)cc1Cl` [1,2,4,5-Tetrachlorobenzene], the melting point was 139 °C.
In the case of `Clc1cc(Cl)c(Cl)cc1Cl` [1,2,4,5-tetrachlorobenzene], the melting point is reported as 140 °C.
In the case of `Cc1cc(C)c(C)cc1C` [1,2,4,5-tetramethylbenzene], the melting point is reported as 80 °C.
`Cc1ccc(C)c(C)c1` [1,2,4-Trimethylbenzene] showed a melting point of -43.8 °C.
For `O=C(O)c1ccc2c(c1)C(=O)OC2=O` [1,2,4-benzenetricarboxylic anhydride], the melting point was 167 °C.
Molecule `c1ccc2c(c1)ccc1cc3c(ccc4ccccc43)cc12` [1,2,5,6-Dibenzanthracene dibenz[a,h]anthracene] has a melting point of 266 °C.
`CCCCCCCCCCc1ccc(N(NC(=O)OC(C)(C)C)C(=O)OC(C)(C)C)cc1CCCCCCCCCC` [1,2-Bis(tert-butoxycarbonyl)-1-(3,4-didecylphenyl)hydrazine] showed a melting point of 37.5 °C.
In the case of `Oc1ccccc1O` [1,2-Dihydroxybenzene], the melting point is reported as 105 °C.
In the case of `COCCOC` [1,2-Dimethoxyethane], the melting point is reported as -58 °C.
For `Cc1ccc([N+](=O)[O-])cc1C` [1,2-Dimethyl-4-nitrobenzene], the melting point was 30.5 °C.
In the case of `O=S1(=O)CCCO1` [1,2-Oxathiolane 2,2-dioxide], the melting point is reported as 32 °C.
For `OCc1ccccc1CO` [1,2-benzenedimethanol], the melting point was 64 °C.
With `CCC1CO1` (centres undefined) [1,2-butene oxide] the melting point was -130 °C and -129 °C.
For `CC(Br)CBr` (centres undefined) [1,2-dibromopropane] [listing 1 of 2 here], the melting point was -55 °C.
For `CC(Br)CBr` (centres undefined) [1,2-dibromopropane] [listing 2 of 2 here], the melting point was -55 °C.
In the case of `O=[N+]([O-])c1cccc(Cl)c1Cl` [1,2-dichloro-3-nitrobenzene], the melting point is reported as 62 °C.
For `Fc1ccccc1F` [1,2-difluorobenzene], the melting point was -34 °C.
Molecule `COCCOC` [1,2-dimethoxyethane] has a melting point of -69 °C.
For `COCCOC` [1,2-dimethyloxyethane], the melting point was -58 °C.
In the case of `c1ccc(OCCOc2ccccc2)cc1` [1,2-diphenoxyethane], the melting point is reported as 95 °C.
With `SCCS` [1,2-ethanedithiol] the melting point was -41 °C.
`CCCCCCC(O)CO` (centres undefined) [1,2-octanediol] showed a melting point of 31 °C.
`N#CCc1ccccc1CC#N` [1,2-phenylenediacetonitrile] gave a melting point of 59 °C.
Molecule `Brc1cc(Br)cc(Br)c1` [1,3,5-Tribromobenzene] has a melting point of 122 °C.
In the case of `CC(C)(C)c1cc(C(C)(C)C)cc(C(C)(C)C)c1` [1,3,5-tri-tert-butylbenzene], the melting point is reported as 71 °C.
Molecule `Cc1cc(C)n(C)n1` [1,3,5-trimethyl-1h-pyrazole] has a melting point of 36 °C.
Molecule `C1OCOCO1` [1,3,5-trioxane] has a melting point of 61 °C.
Work on `Cn1c(=O)c2c(ncn2C)n(C)c1=O` [1,3,7-Trimethyl-3,7-dihydro-1H-purine-2,6-dione] yielded a melting point of 237 °C.
For `c1ccc2scnc2c1` [1,3-Benzothiazole], the melting point was 2 °C.
For `Clc1cccc(Cl)c1` [1,3-Dichlorobenzene], the melting point was -24.8 °C.
With `O=C(CO)CO` [1,3-Dihydroxyacetone] the melting point was 75 °C.
Molecule `O=C=N/c1cccc(N=C=O)c1C` [1,3-Diisocyanato-2-methylbenzene] has a melting point of 20 °C.
Work on `O=C(CC(=O)c1ccccc1)c1ccccc1` [1,3-Diphenylpropane-1,3-dione] yielded a melting point of 77 °C.
`Cc1ccc(NC(=O)Nc2ccc(C)cc2)cc1` [1,3-bis(4-tolyl)urea] showed a melting point of 266 °C.

Reference: the Bradley open melting point set (2014)
